Assays:
[1] = Model-based analysis of in vitro dissolution data (DLM, SIVA); type: physicochemical
Description: The dissolution rate of spherical particles under sink and non-sink conditions within SIVA is described by an extension of the diffusion layer model (DLM) developed by Wang and Flanagan (Equation (3)). (3) DRt=-[…] where DRt is the dissolution rate at time t, N is the number of particles in a given particle size bin, and SDLM is a lumped correction scalar without regard to the mechanistic origin of the correction to the DLM. The SDLM estimates obtained with SIVA can be applied to the Simcyp PBPK simulator to reflect differences between media or formulations by simulating the respective in vivo dissolution; Deff is the effective diffusion coefficient; […] represent the thickness of the hydrodynamic boundary layer and the particle radius at time t, respectively; Ssurfacet corresponds to the saturation solubility at the particle surface (which may be different to the bulk fluid solubility, as discussed below); and Cbulkt is the concentration of dissolved drug in bulk solution at time t. The […] calculated by the fluid dynamics sub-model, which enables the hydrodynamic conditions to be described according to local conditions and stirring rate. Fluid dynamics-based […] recommended option for describing the hydrodynamics, as it permits a more rational translation of estimated parameters such as the SDLM to in vivo conditions, in which the hydrodynamics are usually quite different to in vitro experiments. […] Since the in vitro dissolution media have a somewhat […] buffer capacity than the intestinal fluids, the self-buffering effect at the solid surface can be underestimated. For this reason, the surface pH was calculated and directly input into SIVA. The calculation of the surface pH is based on the model first proposed by Mooney et al., which assumes that dissolution is the result of both chemical reaction between the conjugate base of the buffer species and the hydrogen cations released from the dissolving drug (in this case FLU) at the liquid-solid interface and the diffusion of the dissolved particles to the bulk. This model is very similar to the quasi-equilibrium model published by Ozturk et al., a derivative of which is implemented in SIVA as the default option for surface pH calculations. By fitting the DLM model to the observed dissolution data, we obtained SDLM estimates for each dissolution and two-stage test. In the case of two-stage testing, different SDLM values were obtained for the gastric and intestinal compartments, accounting for the changes in the respective in vitro conditions. Under fasted state intestinal conditions, FLU is freely soluble and therefore dissolution is not expected to be solubility limited. In that case, disintegration of the solid dosage form in the intestinal dissolution medium might be the rate-limiting step for the in vitro dissolution rate, especially in single dissolution experiments where the dosage form is directly exposed to the intestinal medium without any pre-treatment in a gastric medium. […] For the two-stage test experiments, the option was kept deactivated since disintegration in the stomach is already accounted for by the dissolution in the gastric medium. Both gastric and intestinal phases of the two-stage results were modelled simultaneously using the serial dilution model, which can account for more than one in vitro dissolution condition in the same experiment. Estimation of the relevant parameters was performed using the Nelder-Mead algorithm and equal weighting was applied. […]

[2] = system: CYP2C9 1*/1*; details: Recombinant CYP (fu,mic = 1), cited from earlier work
[3] = In vitro dissolution, USP II paddle apparatus; type: physicochemical
Description: All dissolution tests were performed using a calibrated USP II (paddle) apparatus (Erweka DT 80, Heusenstamm, Germany) at 37 ± 0.4 °C. Each vessel contained 500 mL of fresh, pre-warmed medium and the rotational speed was set at 75 rpm. Samples were withdrawn at 2.5, 5, 10, 15, 20, 30, 45, 60, 90, and 120 min via a 5 mL glass syringe connected to a stainless-steel cannula containing a 10 μm polyethylene cannula filter. Immediately thereafter, the sample was filtered through a 0.45 μm PTFE filter (ReZist 30, GE Healthcare UK Ltd., Buckinghamshire, United Kingdom), discarding the first 2 mL. The filtrate was immediately diluted with mobile phase and analyzed by HPLC-UV (see Section 2.5). The removal of 5 mL at each sampling time was considered in the calculation of the percentage dissolved. All experiments were performed at least in triplicate (n ≥ 3) and the final pH in the vessel was recorded.
Samples obtained from solubility and dissolution experiments were first filtered through a 0.45 μm PTFE filter (ReZist 30 syringe filter or Uniprep; Whatman, Piscataway, NJ, USA) and subsequently, after appropriate dilution with mobile phase, analyzed by HPLC-UV (Hitachi Chromaster; Hitachi Ltd., Tokyo, Japan or Spectra System HPLC, ThermoQuest Inc., San Jose, CA, USA). A BDS Hypersil C18, 5 μm, 150 × 4.6 mm (Thermo Scientific, Waltham, MA, United States) analytical column combined with a pre-column (BDS Hypersil C-18, 3μm, 10 × 4mm) was used. The mobile phase consisted of water adjusted to pH = 3.0 with trifluoroacetic acid (TFA) and acetonitrile (49.5:0.5:50% v/v). The detection wavelength was set at 247 nm, the flow rate at 1.0 mL/min, and the injection volume at 20 μL. Using this method, the retention time was approximately 6.8 min. The limit of detection (LOD) and quantification (LOQ) were 0.03 and 0.05 μg/mL, respectively.

CC(C(=O)O)c1ccc(-c2ccccc2)c(F)c1 (stereo not drawn) [flurbiprofen]
SDLM (95% CI) ([1]; FaSSGF Level III): 0.0218 (0.0161–0.0274)
SDLM (95% CI) ([1]; FaSSIF V3 Level I, listed as API): 0.00185
SDLM (95% CI) ([1]; FaSSIF V3 Level I, listed as API Powder): 0.00185 (0.001–0.00312)
SDLM (95% CI) ([1]; FaSSIF V3 Level II): 0.0965 (0.0544–0.139)
SDLM (95% CI) ([1]; Ph. Eur. Phosphate Buffer): 0.00542 (0.00468–0.00617)
CYP2C9 1*/1*-Vmax [2]: 15.79 pmol/min/pmol CYP
Km ([2]; read-out: CYP2C9 1*/1*-Km): 8.76 µM
maximum dissolved ([3]; FaSSGF Level I, 100 mg): 5.5%
plateau of in vitro release ([3]; FaSSGF Levels I and III, 100 mg): around 8.3 % of the dose
time to 85% dissolved ([3]; FaSSIF V3 Level I (without bile components)): 60 min
time to >85% dissolved ([3]; FaSSIF V3 Level II): ≤ 2.5 min
time to >85% dissolved ([3]; Ph. Eur. phosphate buffer (pH 6.8)): ≤ 15 min
